These results are taken from article PMC9820311, “Characterization of a Novel Amphiphilic Cationic Chlorin Photosensitizer for Photodynamic Applications” (International Journal of Molecular Sciences, 2022).

The assay concerns the target T1, bovine serum albumin (BSA) (Bos taurus, UniProt P02769).
T1 construct: gene ALB
Kind of assay: BSA intrinsic fluorescence quenching titration (Stern-Volmer; λex = […] nm, […] BSA), supported by chlorin fluorescence increase and DLS. The format is binding. The following applies: read-out: BSA intrinsic fluorescence quenching titration (Stern-Volmer); λex = 290 nm, 5 μM (converted).

SMILES strings stand for the structures.

T1 sequence (P02769 25-607): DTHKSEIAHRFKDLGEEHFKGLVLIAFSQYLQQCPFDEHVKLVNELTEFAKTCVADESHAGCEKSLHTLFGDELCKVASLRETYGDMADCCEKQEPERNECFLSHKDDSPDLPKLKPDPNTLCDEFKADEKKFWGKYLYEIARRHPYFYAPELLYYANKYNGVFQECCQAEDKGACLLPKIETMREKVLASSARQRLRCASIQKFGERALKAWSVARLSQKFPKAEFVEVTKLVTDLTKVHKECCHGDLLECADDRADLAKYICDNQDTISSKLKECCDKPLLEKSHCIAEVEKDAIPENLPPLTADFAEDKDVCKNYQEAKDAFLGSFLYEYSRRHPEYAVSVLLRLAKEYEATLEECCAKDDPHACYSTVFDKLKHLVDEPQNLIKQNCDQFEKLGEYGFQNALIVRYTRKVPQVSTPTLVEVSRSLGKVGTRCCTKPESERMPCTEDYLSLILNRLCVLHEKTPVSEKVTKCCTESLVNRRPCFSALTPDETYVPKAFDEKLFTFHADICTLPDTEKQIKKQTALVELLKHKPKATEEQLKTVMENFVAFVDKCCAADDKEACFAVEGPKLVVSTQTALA

Regarding `CCC1=C(C)c2cc3[nH]c(cc4nc(c(CC(=O)OC)c5[nH]c(cc1n2)c(C)c5C(=O)NC)[C@@H](CCC(=O)OC/C=C(\C)CCCC(C)CCCC(C)CCCC(C)C)[C@@H]4C)c(C)c3C(=CC[N+](C)(C)C)C[N+](C)(C)C` (mixture of isomers) [compound 1, 3(1),3(2)-bis(N,N,N-trimethylaminomethyliodide) chlorin e6 13(1)-N-methylamide-15(2)-methyl,17(3)-phytyl ester], the Kd was 2740 nM.
